Laboratory results reported in US8952024B2, “Herbicidal pyrimidone derivatives” (E I du Pont de Nemours and Company, priority 2009, dated 2015).

Assays:
Type in all cases: in vivo
[1] = tested on: bermudagrass (Cynodon dactylon); test: Test B pre-/postemergence plant response
How it was run: (§1)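 Plants treated either at seeding (loam/sand soil) or postemergence at 2 to 18 cm height, using a surfactant-containing non-phytotoxic solvent formulation. Evaluation was visual after 13 to 15 days, 0 to 100 scale relative to controls.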

[2] = tested on: blackgrass (Alopecurus myosuroides); test: Test B pre-/postemergence plant response
How it was run: as §1

[3] = tested on: cocklebur (Xanthium strumarium); test: Test B pre-/postemergence plant response; details: Preemergence; for Plant response rating, Cocklebur: scale 0 to 100, 0 no effect, 100 complete control
How it was run: as §1

[4] = tested on: downy bromegrass (Bromus tectorum); test: Test B pre-/postemergence plant response
How it was run: as §1

[5] = tested on: giant foxtail (Setaria faberii); test: Test B pre-/postemergence plant response
How it was run: as §1

[6] = tested on: green foxtail (Setaria viridis); test: Test B pre-/postemergence plant response
How it was run: as §1

[7] = tested on: johnsongrass (Sorghum halepense); test: Test B pre-/postemergence plant response
How it was run: as §1

kochia (Kochia scoparia) = test: Test B pre-/postemergence plant response
How it was run: as §1

[8] = tested on: morningglory (Ipomoea coccinea); test: Test B pre-/postemergence plant response
How it was run: as §1

[9] = tested on: ragweed (common ragweed, Ambrosia elatior); test: Test B pre-/postemergence plant response
How it was run: as §1

soybean (Glycine max) = test: Test B pre-/postemergence plant response
How it was run: as §1

[10] = tested on: velvetleaf (Abutilon theophrasti); test: Test B pre-/postemergence plant response
How it was run: as §1

[11] = tested on: wheat (Triticum aestivum); test: Test B pre-/postemergence plant response
How it was run: as §1

wild oat (Avena fatua) = test: Test B pre-/postemergence plant response
How it was run: as §1

[12] = tested on: yellow nutsedge (Cyperus esculentus); test: Test B pre-/postemergence plant response
How it was run: as §1

[13] = tested on: canarygrass (Phalaris minor); test: Test B postemergence plant response; details: Postemergence
How it was run: (§2)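 Plants at the 1- to 4-leaf stage (2 to 18 cm tall), grown in pots of peat moss/vermiculite medium with wetting agent and starter nutrients, received postemergence applications of test chemicals. After 13 to 15 days in a greenhouse, injury was rated visually against untreated controls on a 0 (no effect) to 100 (complete control) scale.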

[14] = tested on: chickweed (Stellaria media); test: Test B postemergence plant response; details: Postemergence
How it was run: as §2

[15] = tested on: windgrass (Apera spica-venti); test: Test B postemergence plant response; details: Postemergence
How it was run: as §2

[16] = Postemergence, 31 g ai/ha, 0 to 100 scale (0 no effect, 100 complete control)
[17] = Postemergence, 125 g ai/ha, scale 0 (no effect) to 100 (complete control), 13 to 15 days
[18] = Postemergence, 250 g ai/ha, scale 0 to 100 (0 no effect, 100 complete control), 13 to 15 days
[19] = Postemergence, 62 g ai/ha, scale 0 to 100 (0 no effect, 100 complete control)
[20] = Preemergence, 31 g ai/ha, scale 0 to 100 (0 no effect, 100 complete control)
[21] = Preemergence, 62 g ai/ha, scale 0 to 100, 0 no effect, 100 complete control
[22] = Preemergence, 125 g ai/ha, scale 0 to 100, 0 no effect, 100 complete control
[23] = Preemergence, 250 g ai/ha, 0 to 100 scale
[24] = 31 g ai/ha, 0 to 100 scale (0 no effect, 100 complete control)
[25] = 125 g ai/ha, scale 0 (no effect) to 100 (complete control), 13 to 15 days
[26] = 250 g ai/ha, scale 0 to 100 (0 no effect, 100 complete control), 13 to 15 days
[27] = 62 g ai/ha, scale 0 to 100 (0 no effect, 100 complete control)

COCCCn1c(-c2cc(F)cc(F)c2)ncc(C(=O)C2=C(O)C3CCC(C3)C2=O)c1=O (stereo not shown) [Compound 244]
95: Plant response rating, Foxtail, Giant [5, 16] | Plant response rating, Foxtail, Giant [5, 17] | Plant response rating, Foxtail, Giant [5, 19] | Plant response rating, Johnsongrass [7, 19] | Plant response rating, Kochia (kochia (Kochia scoparia); [22]) | Plant response rating, Morningglory [8, 19] | Plant response rating, Ragweed [9, 21] | Soybean plant response rating (soybean (Glycine max); [23]) | Plant response rating, Wheat [11, 18] | Plant response rating, Oat, Wild (wild oat (Avena fatua); [17]) | Nutsedge, Yellow plant response rating [12, 23] | Plant response rating, Canarygrass [13, 27] | Plant response rating, Chickweed [14, 27] | Plant response rating, Windgrass [15, 26]
70: Blackgrass plant response rating [2, 23] | Plant response rating, Johnsongrass [7, 20] | Plant response rating, Ragweed [9, 20] | Plant response rating, Soybean (soybean (Glycine max); [20]) | Plant response rating, Oat, Wild (wild oat (Avena fatua); [19]) | Plant response rating, Windgrass [15, 27]
98: Plant response rating, Foxtail, Green [6, 17] | Plant response rating, Foxtail, Green [6, 19] | Plant response rating, Morningglory [8, 22] | Plant response rating, Ragweed [9, 16] | Plant response rating, Ragweed [9, 17] | Plant response rating, Ragweed [9, 19] | Plant response rating, Oat, Wild (wild oat (Avena fatua); [18]) | Plant response rating, Canarygrass [13, 25] | Plant response rating, Chickweed [14, 25]
75: Plant response rating, Bromegrass, Downy [4, 17] | Plant response rating, Nutsedge, Yellow [12, 18]
85: Plant response rating, Blackgrass [2, 18] | Plant response rating, Foxtail, Green [6, 16] | Plant response rating, Johnsongrass [7, 16] | Plant response rating, Johnsongrass [7, 21] | Plant response rating, Kochia (kochia (Kochia scoparia); [16]) | Plant response rating, Kochia (kochia (Kochia scoparia); [20]) | Plant response rating, Morningglory [8, 20] | Plant response rating, Soybean (soybean (Glycine max); [16]) | Plant response rating, Wheat [11, 17]
50: Plant response rating, Blackgrass [2, 16] | Plant response rating, Bromegrass, Downy [4, 19] | Plant response rating, Oat, Wild (wild oat (Avena fatua); [16]) | Plant response rating, Nutsedge, Yellow [12, 19] | Plant response rating, Windgrass [15, 24]
0: Plant response rating, Bromegrass, Downy [4, 20] | Plant response rating, Bromegrass, Downy [4, 21] | Plant response rating, Foxtail, Green [6, 20] | Plant response rating, Wheat [11, 20] | Plant response rating, Wheat [11, 21] | Plant response rating, Oat, Wild (wild oat (Avena fatua); [20])
40: Plant response rating, Bromegrass, Downy [4, 16] | Oat, Wild plant response rating (wild oat (Avena fatua); [23])
5: Plant response rating, Bromegrass, Downy [4, 22] | Plant response rating, Wheat [11, 22] | Plant response rating, Oat, Wild (wild oat (Avena fatua); [21])
20: Plant response rating, Nutsedge, Yellow [12, 20]
60: Plant response rating, Blackgrass [2, 19] | Plant response rating, Blackgrass [2, 22] | Plant response rating, Foxtail, Giant [5, 20] | Plant response rating, Wheat [11, 16] | Plant response rating, Nutsedge, Yellow [12, 21]
65: Plant response rating, Blackgrass [2, 17] | Plant response rating, Nutsedge, Yellow [12, 17]
100: Plant response rating, Bermudagrass [1, 17] | Plant response rating, Bermudagrass [1, 18] | Plant response rating, Bermudagrass [1, 19] | Plant response rating, Bermudagrass [1, 20] | Plant response rating, Bermudagrass [1, 21] | Plant response rating, Bermudagrass [1, 22] | Bermudagrass plant response rating ([1]; Preemergence, 250 g ai/ha, 0 to 100 scale, 0 no effect, 100 complete control) | Plant response rating, Cocklebur ([3]; 125 g ai/ha) | Cocklebur plant response rating ([3]; 250 g ai/ha, 0 to 100 scale) | Plant response rating, Foxtail, Giant [5, 18] | Plant response rating, Foxtail, Giant [5, 22] | Foxtail, Giant plant response rating [5, 23] | Plant response rating, Foxtail, Green [6, 18] | Plant response rating, Johnsongrass [7, 17] | Plant response rating, Johnsongrass [7, 18] | Plant response rating, Johnsongrass [7, 22] | Johnsongrass plant response rating [7, 23] | Plant response rating, Kochia (kochia (Kochia scoparia); [17]) | Plant response rating, Kochia (kochia (Kochia scoparia); [18]) | Kochia plant response rating (kochia (Kochia scoparia); [23]) | Plant response rating, Morningglory [8, 17] | Plant response rating, Morningglory [8, 18] | Morningglory plant response rating [8, 23] | Plant response rating, Ragweed [9, 18] | Plant response rating, Ragweed [9, 22] | Ragweed plant response rating [9, 23] | Plant response rating, Soybean (soybean (Glycine max); [17]) | Plant response rating, Soybean (soybean (Glycine max); [18]) | Plant response rating, Soybean (soybean (Glycine max); [19]) | Plant response rating, Velvetleaf [10, 16] | Plant response rating, Velvetleaf [10, 17] | Plant response rating, Velvetleaf [10, 18] | Plant response rating, Velvetleaf [10, 19] | Plant response rating, Velvetleaf [10, 20] | Plant response rating, Velvetleaf [10, 21] | Plant response rating, Velvetleaf [10, 22] | Velvetleaf plant response rating [10, 23] | Plant response rating, Canarygrass [13, 26] | Plant response rating, Chickweed [14, 26]
80: Plant response rating, Bermudagrass [1, 16] | Plant response rating, Bromegrass, Downy [4, 18] | Plant response rating, Foxtail, Giant [5, 21] | Plant response rating, Soybean (soybean (Glycine max); [21]) | Plant response rating, Wheat [11, 19] | Plant response rating, Nutsedge, Yellow [12, 22] | Plant response rating, Canarygrass [13, 24] | Plant response rating, Chickweed [14, 24] | Plant response rating, Windgrass [15, 25]
35: Plant response rating, Blackgrass [2, 20] | Plant response rating, Blackgrass [2, 21]
10: Plant response rating, Oat, Wild (wild oat (Avena fatua); [22])
45: Plant response rating, Foxtail, Green [6, 21] | Wheat plant response rating [11, 23] | Plant response rating, Nutsedge, Yellow [12, 16]
90: Plant response rating, Cocklebur ([3]; 62 g ai/ha) | Plant response rating, Foxtail, Green [6, 22] | Foxtail, Green plant response rating [6, 23] | Plant response rating, Kochia (kochia (Kochia scoparia); [19]) | Plant response rating, Kochia (kochia (Kochia scoparia); [21]) | Plant response rating, Morningglory [8, 16] | Plant response rating, Morningglory [8, 21] | Plant response rating, Soybean (soybean (Glycine max); [22])
30: Bromegrass, Downy plant response rating [4, 23]
